Data from the NIST ThermoML archive (doi:10.1021/je050056e).
Numbers after ± are expanded uncertainties.

Details: Liquid; for mass density: 101.33 kPa

Fc1c(F)c(F)c(C(F)(F)F)c(F)c1F [octafluorotoluene]
mass density (288.15 K): 1682.8 ± 1.5 kg/m3 | vapor or sublimation pressure (288.23 K): 2.18 ± 0.07 kPa | mass density (293.15 K): 1672.2 ± 1.5 kg/m3 | vapor or sublimation pressure (293.2 K): 2.95 ± 0.08 kPa | mass density (298.15 K): 1661.6 ± 1.5 kg/m3 | vapor or sublimation pressure (298.28 K): 3.87 ± 0.09 kPa | mass density (303.15 K): 1650.9 ± 1.4 kg/m3 | vapor or sublimation pressure (303.18 K): 5.09 ± 0.1 kPa | mass density (308.15 K): 1640.2 ± 1.4 kg/m3 | vapor or sublimation pressure (308.15 K): 6.54 ± 0.11 kPa | mass density (313.15 K): 1629.4 ± 1.4 kg/m3 | vapor or sublimation pressure (313.15 K): 8.43 ± 0.13 kPa | vapor or sublimation pressure (318.15 K): 10.69 ± 0.15 kPa | vapor or sublimation pressure (323.15 K): 13.38 ± 0.18 kPa | vapor or sublimation pressure (328.45 K): 16.86 ± 0.22 kPa | vapor or sublimation pressure (333.93 K): 21.31 ± 0.26 kPa

FC(F)C(F)(F)C(F)(F)C(F)(F)C(F)(F)C(F)(F)C(F)(F)C(F)(F)F [1H-perfluorooctane]
mass density (288.15 K): 1773.6 ± 1.6 kg/m3 | vapor or sublimation pressure (288.35 K): 1.18 ± 0.06 kPa | mass density (293.15 K): 1761.8 ± 1.6 kg/m3 | vapor or sublimation pressure (293.26 K): 1.6 ± 0.06 kPa | mass density (298.15 K): 1749.9 ± 1.6 kg/m3 | vapor or sublimation pressure (298.26 K): 2.18 ± 0.07 kPa | mass density (303.15 K): 1737.9 ± 1.6 kg/m3 | vapor or sublimation pressure (303.19 K): 2.84 ± 0.07 kPa | mass density (308.15 K): 1725.8 ± 1.6 kg/m3 | vapor or sublimation pressure (308.15 K): 3.72 ± 0.08 kPa | vapor or sublimation pressure (313.13 K): 4.87 ± 0.1 kPa | mass density (313.15 K): 1713.6 ± 1.6 kg/m3 | vapor or sublimation pressure (318.06 K): 6.22 ± 0.11 kPa | vapor or sublimation pressure (323.01 K): 8.07 ± 0.13 kPa | vapor or sublimation pressure (328 K): 10.25 ± 0.15 kPa | vapor or sublimation pressure (332.89 K): 12.83 ± 0.17 kPa

FC(F)(F)C(F)(F)C(F)(F)C(F)(F)C(F)(F)C(F)(F)C(F)(F)C(F)(F)Br [1-bromoperfluorooctane]
mass density (288.15 K): 1938.6 ± 1.9 kg/m3 | vapor or sublimation pressure (288.22 K): 0.38 ± 0.02 kPa | mass density (293.15 K): 1926.7 ± 1.9 kg/m3 | vapor or sublimation pressure (293.2 K): 0.54 ± 0.03 kPa | vapor or sublimation pressure (298.08 K): 0.69 ± 0.04 kPa | mass density (298.15 K): 1914.8 ± 1.9 kg/m3 | mass density (303.15 K): 1902.8 ± 1.9 kg/m3 | vapor or sublimation pressure (303.26 K): 0.98 ± 0.05 kPa | mass density (308.15 K): 1890.8 ± 1.8 kg/m3 | vapor or sublimation pressure (308.22 K): 1.3 ± 0.06 kPa | mass density (313.15 K): 1878.6 ± 1.8 kg/m3 | vapor or sublimation pressure (313.18 K): 1.67 ± 0.06 kPa | vapor or sublimation pressure (318.09 K): 2.24 ± 0.07 kPa | vapor or sublimation pressure (322.92 K): 2.89 ± 0.08 kPa | vapor or sublimation pressure (327.88 K): 3.69 ± 0.08 kPa | vapor or sublimation pressure (332.78 K): 4.7 ± 0.09 kPa

Fc1c(F)c(F)c(F)c(F)c1F [hexafluorobenzene]
mass density (288.15 K): 1628.9 ± 1.4 kg/m3 | vapor or sublimation pressure (288.23 K): 6.9 ± 0.12 kPa | mass density (293.15 K): 1617.5 ± 1.4 kg/m3 | vapor or sublimation pressure (293.51 K): 9 ± 0.14 kPa | vapor or sublimation pressure (297.98 K): 11.16 ± 0.16 kPa | mass density (298.15 K): 1606.2 ± 1.4 kg/m3 | vapor or sublimation pressure (302.96 K): 14.2 ± 0.19 kPa | mass density (303.15 K): 1594.8 ± 1.4 kg/m3 | vapor or sublimation pressure (307.96 K): 17.93 ± 0.23 kPa | mass density (308.15 K): 1583.3 ± 1.3 kg/m3 | vapor or sublimation pressure (312.96 K): 22.25 ± 0.27 kPa | mass density (313.15 K): 1571.8 ± 1.3 kg/m3 | vapor or sublimation pressure (317.96 K): 27.56 ± 0.33 kPa | vapor or sublimation pressure (322.96 K): 33.85 ± 0.39 kPa | vapor or sublimation pressure (327.95 K): 41.16 ± 0.46 kPa | vapor or sublimation pressure (333.01 K): 49.95 ± 0.54 kPa

FC1(F)C(F)(F)C(F)(F)C2(F)C(F)(F)C(F)(F)C(F)(F)C(F)(F)C2(F)C1(F)F (centres undefined) [perfluorodecalin]
mass density (288.15 K): 1952.8 ± 1.9 kg/m3 | vapor or sublimation pressure (288.25 K): 0.57 ± 0.03 kPa | mass density (293.15 K): 1941.7 ± 1.9 kg/m3 | vapor or sublimation pressure (293.25 K): 0.73 ± 0.04 kPa | mass density (298.15 K): 1930.5 ± 1.9 kg/m3 | vapor or sublimation pressure (298.21 K): 0.91 ± 0.05 kPa | mass density (303.15 K): 1919.2 ± 1.9 kg/m3 | vapor or sublimation pressure (303.29 K): 1.25 ± 0.06 kPa | vapor or sublimation pressure (308.23 K): 1.59 ± 0.06 kPa | mass density (313.15 K): 1896.6 ± 1.8 kg/m3 | vapor or sublimation pressure (313.22 K): 2.05 ± 0.07 kPa | vapor or sublimation pressure (318.21 K): 2.66 ± 0.07 kPa | vapor or sublimation pressure (323.18 K): 3.45 ± 0.08 kPa | vapor or sublimation pressure (328.17 K): 4.41 ± 0.09 kPa | vapor or sublimation pressure (333.2 K): 5.47 ± 0.1 kPa

FC(F)(F)C(F)(F)C(F)(F)C(F)(F)C(F)(F)C(F)(F)C(F)(F)C(F)(F)C(F)(F)F [eicosafluorononane]
mass density (288.15 K): 1812.2 ± 1.7 kg/m3 | vapor or sublimation pressure (288.18 K): 0.68 ± 0.04 kPa | mass density (293.15 K): 1800.1 ± 1.7 kg/m3 | vapor or sublimation pressure (293.18 K): 0.94 ± 0.05 kPa | vapor or sublimation pressure (298.11 K): 1.29 ± 0.07 kPa | mass density (298.15 K): 1787.9 ± 1.7 kg/m3 | vapor or sublimation pressure (303.1 K): 1.71 ± 0.06 kPa | mass density (303.15 K): 1775.7 ± 1.7 kg/m3 | vapor or sublimation pressure (308.19 K): 2.32 ± 0.07 kPa | mass density (313.15 K): 1750.9 ± 1.6 kg/m3 | vapor or sublimation pressure (313.17 K): 3.06 ± 0.08 kPa | vapor or sublimation pressure (318.22 K): 3.99 ± 0.09 kPa | vapor or sublimation pressure (323.15 K): 5.14 ± 0.1 kPa | vapor or sublimation pressure (328.15 K): 6.59 ± 0.11 kPa | vapor or sublimation pressure (333.15 K): 8.42 ± 0.13 kPa

FC(F)(F)C(F)(F)C(F)(F)C(F)(F)C(F)(F)C(F)(F)F [perfluorohexane]
mass density (288.15 K): 1705.6 ± 1.5 kg/m3 | vapor or sublimation pressure (288.31 K): 18.78 ± 2 kPa | mass density (293.15 K): 1691 ± 1.5 kg/m3 | vapor or sublimation pressure (293.22 K): 23.58 ± 2 kPa | vapor or sublimation pressure (298.09 K): 29.28 ± 2 kPa | mass density (298.15 K): 1676.1 ± 1.5 kg/m3 | vapor or sublimation pressure (302.98 K): 36.19 ± 2 kPa | mass density (303.15 K): 1661.1 ± 1.5 kg/m3 | vapor or sublimation pressure (307.97 K): 44.38 ± 2 kPa | mass density (313.15 K): 1630.2 ± 1.4 kg/m3 | vapor or sublimation pressure (313.17 K): 54.56 ± 2.1 kPa | vapor or sublimation pressure (318.15 K): 65.86 ± 2.1 kPa | vapor or sublimation pressure (323.13 K): 78.91 ± 2.1 kPa | vapor or sublimation pressure (328.11 K): 94.08 ± 2.2 kPa | vapor or sublimation pressure (333.1 K): 111.39 ± 2.2 kPa
